Reference: patent publication US20120107323A1, “KINASE PROTEIN BINDING INHIBITORS” (University of Florida, priority 2009, published 2012)
pIC50: −log10 of the molar value.

Tests used:
[1] = test system: Miapaca-2 orthotopic xenografts; assay: Orthotopic pancreatic xenograft, Miapaca-2; format: in vivo, mice
Description: For the orthotopic model of pancreatic cancer, the University of Florida IACUC approved the following protocol (IACUC Study #2000801506). The pancreatic cancer cell lines, Mia paca-2 and Panc-1 cells were stably transfected using luciferase-RFP (red fluorescent protein) reporter gene for in vivo imaging of the xenografts. Following expansion and sorting of RFP positive cells, cells were expanded in culture and 5×10^6 tumor cells were implanted into the pancreas of 20 mice. For intra-pancreatic implantation of cells, mice were anesthetized with Isoflurane using the ACS provided and maintained rodent anesthesia machine. Under sterille surgical conditions, via 1.0 cm incision of the skin, abdominal wall and peritonium, the spleen was retracted and cells were injected in […] into the tail of the pancreas using a 29-gauge needle. The abdominal wall and peritoneum was sutured using 5.0 absorbable surgical sutures and the skin was closed with medical glue (dermabond). Postoperative analgesia was 0.05 mg/kg of buprenorphine subcutaneously per 8-12 hours postoperatively.
Mice were hand restrained prior to intraperitoneal injections. Mice were euthanized 6 weeks after tumor innoculation and tumor and tissue collected. As described below, mice were imaged weekly with the IVIS lumina imager and tumor size was estimated by the bioluminescent signal. […]

FAK and IGF-1R = biological target: T1, FAK and IGF-1R (Homo sapiens, UniProt Q05397); assay: Coimmunoprecipitation of FAK and IGF-1R in A375 melanoma cells; format: cell-based; details: average IC50, A375 cells, immunoprecipitation with antibody against FAK; read-out: IC50, disruption of FAK/IGF-1R binding
T1 construct: endogenous in cells; host or cells: C8161 (A2) and A375 (A3) melanoma cells
Description: Computational Docking The crystal structures of the N-terminal domain of FAK (PDB code 2AL6) (22) and the kinase domain of IGF-1R(PDB 1P40A) (23) were utilized for in silico molecular modeling of their interaction as previously described. The three-dimensional coordinates of compound NSC344553 (INT2-31), obtained from the database of the National Cancer Institute, Developmental Therapeutics Program (NCI/DTP), were docked onto the predicted interface of the amino-terminus of FAK (amino acids 127-243) with the intracytoplasmic portion of IGF-1R (21). […] 100 orientations were created for NSC344553 in the target site and were scored using the computer program grid-based scoring function. […] The intermolecular energies for all configurations of NSC 344553 in binding to FAK-NT2 were calculated as the sum of electrostatic and van der Waals energies. These energy terms were evaluated as correlation functions, which were computed efficiently with Fast Fourier Transforms. […] Bound proteins were boiled in 6× Laemmli buffer and analyzed by SDS-PAGE and Western blotting. […] The intensity of the bands in the western blots was measured with scion image analysis software program. […]

T1 sequence (Q05397 2-1052 limits assumed): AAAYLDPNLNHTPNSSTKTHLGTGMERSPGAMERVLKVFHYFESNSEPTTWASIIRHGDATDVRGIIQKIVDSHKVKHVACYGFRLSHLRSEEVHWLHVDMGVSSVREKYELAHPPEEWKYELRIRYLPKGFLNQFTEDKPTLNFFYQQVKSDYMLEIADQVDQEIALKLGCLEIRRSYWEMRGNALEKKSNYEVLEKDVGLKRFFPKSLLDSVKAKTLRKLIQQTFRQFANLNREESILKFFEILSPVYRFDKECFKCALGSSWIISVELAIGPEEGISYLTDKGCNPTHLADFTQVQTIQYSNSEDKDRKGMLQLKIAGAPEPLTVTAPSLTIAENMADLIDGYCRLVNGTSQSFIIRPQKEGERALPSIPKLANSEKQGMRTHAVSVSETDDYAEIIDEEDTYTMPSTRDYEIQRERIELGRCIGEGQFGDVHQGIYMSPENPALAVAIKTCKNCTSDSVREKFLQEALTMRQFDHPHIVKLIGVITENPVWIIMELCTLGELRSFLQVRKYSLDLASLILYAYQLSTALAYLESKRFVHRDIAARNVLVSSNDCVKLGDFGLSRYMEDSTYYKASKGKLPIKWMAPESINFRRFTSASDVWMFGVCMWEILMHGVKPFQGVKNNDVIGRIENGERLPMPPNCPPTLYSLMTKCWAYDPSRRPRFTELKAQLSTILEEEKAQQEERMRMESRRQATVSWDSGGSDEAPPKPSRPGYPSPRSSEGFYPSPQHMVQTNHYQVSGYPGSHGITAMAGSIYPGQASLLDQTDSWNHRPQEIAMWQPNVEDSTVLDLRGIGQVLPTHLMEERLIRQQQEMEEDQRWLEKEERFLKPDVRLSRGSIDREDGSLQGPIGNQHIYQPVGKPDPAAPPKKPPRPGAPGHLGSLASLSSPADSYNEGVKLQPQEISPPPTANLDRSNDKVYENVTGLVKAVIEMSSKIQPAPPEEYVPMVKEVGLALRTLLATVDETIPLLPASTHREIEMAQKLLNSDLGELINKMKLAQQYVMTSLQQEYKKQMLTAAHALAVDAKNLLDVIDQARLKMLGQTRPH

CSc1ncnc2c1ccn2C1O[C@H](COP(=O)(O)O)[C@@H](O)[C@H]1O (stereo partly drawn) [INT2-31, 4-(Methylthio)-7-(5-O-phosphono-D-ribofuranosyl)-{7H-Pyrrolo[2,3-d]pyrimidine}]
growth of the orthotopic pancreatic xenografts ([1]; Miapaca2, daily intraperitoneal 50 mg/kg, 21 days): sufficiently reduced the growth
side effects as measured by body weights and appearances of the animals ([1]; both orthotopic models): without any significant side effects
pIC50 (FAK and IGF-1R): 5.50
